pIC50: −log10 of the molar value.
target: T1, PASK (UniProt #Q96RG2; human recombinant N-terminal GST tagged construct, residues 879-1323) (Homo sapiens, UniProt Q96RG2); assay: PASK ATP Radiochemical Assay; assay type: biochemical; settings: 33P-ATP, Myelin Basic Protein substrate, 120 min at room temperature, read-out: IC50 Kinase Domain
T1 construct: human recombinant N-terminal GST tagged construct, residues 879-1323; GST (N); host or cells: insect cells
Method: (§1) Biochemical Assay for hPASK Activity
PASK ATP Radiochemical Assay
Test compounds in DMSO are then added and the mixture, followed by delivery of ^33P-ATP (specific activity 0.01 μCi/μl final) to initiate the reaction. […] The entire reaction mixture is washed through onto a P81 Phosphocellulose paper and washed three times for 10 minutes in 75 mM phosphoric acid and once in methanol prior to drying and scintillation counting.

T1 sequence (Q96RG2 879-1323, stated change not applied): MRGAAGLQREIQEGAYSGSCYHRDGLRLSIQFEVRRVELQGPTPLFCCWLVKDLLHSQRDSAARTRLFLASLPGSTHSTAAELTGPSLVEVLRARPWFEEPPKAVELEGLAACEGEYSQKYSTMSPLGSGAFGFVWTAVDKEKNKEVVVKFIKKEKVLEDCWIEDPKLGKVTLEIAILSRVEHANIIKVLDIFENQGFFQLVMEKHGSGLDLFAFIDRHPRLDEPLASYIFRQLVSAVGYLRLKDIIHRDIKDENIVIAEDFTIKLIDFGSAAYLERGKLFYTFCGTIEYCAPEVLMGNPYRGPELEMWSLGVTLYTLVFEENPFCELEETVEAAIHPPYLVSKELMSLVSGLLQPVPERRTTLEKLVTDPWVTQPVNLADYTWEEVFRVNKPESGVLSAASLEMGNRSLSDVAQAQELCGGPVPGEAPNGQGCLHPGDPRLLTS

| pIC50 | Structure (SMILES) |
| --- | --- |
| > 5.00 | CC(C)N(C)c1nc2cc(C(=O)O)ccc2nc1-c1cc2cc(Cl)ccc2o1 [Example 19, 2-(5-Chlorobenzofuran-2-yl)-3-(isopropyl(methyl)amino)quinoxaline-6-carboxylic acid] |
| > 5.00 | CC(C)N(C)c1nc2cc(C(=O)O)ccc2nc1-c1ccc2c(c1)CCCO2 [Example 21, 2-(Chroman-6-yl)-3-(isopropyl(methyl)amino)quinoxaline-6-carboxylic acid] |
| > 5.00 | CC(C)N(C)c1nc2cc(C(=O)O)ccc2nc1-c1cc2ccccc2s1 [Example 23, 2-(Benzo[b]thiophen-2-yl)-3-(isopropyl(methyl)amino)quinoxaline-6-carboxylic acid] |

target: T2, PASK (Invitrogen) (Homo sapiens, UniProt Q96RG2); assay: PAS Kinase FRET Assay; assay type: biochemical; settings: PAS kinase TR-FRET assay (665 nm/615 nm), 2 hours at 25° C.; read-out: IC50 Kinase Domain
T2 construct: IC50 Kinase Domain; purchased Invitrogen
T2 sequence (Q96RG2 999-1251 limits assumed): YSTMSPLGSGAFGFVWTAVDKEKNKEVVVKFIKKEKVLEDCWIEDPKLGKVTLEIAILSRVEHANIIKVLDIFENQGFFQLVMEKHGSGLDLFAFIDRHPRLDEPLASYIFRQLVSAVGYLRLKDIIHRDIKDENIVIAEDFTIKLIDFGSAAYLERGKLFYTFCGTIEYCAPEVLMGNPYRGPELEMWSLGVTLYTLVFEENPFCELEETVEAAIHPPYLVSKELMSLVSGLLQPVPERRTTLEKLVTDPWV
Text: as §1
The aim of the FRET assay is to determine the inhibition potential of test compounds on targeted kinase. This assay platform provides a homogenous screening method for measuring kinase activity by quantitating the amount of phospho-substrate in solution following a kinase reaction.
In the presence of kinase and ATP, the Ulight-peptide is phosphorylated and captured by an anti-phospho-substrate antibody, which brings the Eu chelate donor and Ulight acceptor dyes into close proximity.
Titration of kinase at 1 mM ATP was achieved via the following protocol. […] The contents of the plate were incubated at RT for 1 h. The reaction was stopped by adding 5 μl of stop solution to each test well followed by mixing and incubation at RT for 10 minutes. 5 μl of detection mix (detection antibody diluted in detection buffer) was added; the contents of the plate were mixed and then incubated in the dark for 1 hour at RT. […] The results were graphed to calculate the EC50.
Titration of ATP at the EC50 concentration of kinase to determine ATP Km,app. was performed using the following method. […] The contents of the plate were and incubated at RT for 1 h. The reaction was stopped by adding 5 μl of stop solution to each test well followed by mixing and incubation at RT for 10 minutes. […] (detection antibody diluted in detection buffer) was added; the contents of the plate were mixed and then incubated in the dark for 1 hour at RT. […] The results were graphed to calculate the EC50 as the ATP Km,app.
Compound screening was done via the following method. 10 mM stock solution of test compound in DMSO was prepared by dissolving test compound in DMSO at RT for 1 hour, and then sonicating at 100% output for 8 minutes. If compound is not soluble under this condition, it was diluted to 3 mM. Kinase reaction buffer was prepared containing 10 mM MgCl2, 50 mM HEPES, 1 mM EGTA, 0.01% TWEEN-20, 2 mM DTT. […] As a positive control, 2.5 μl of positive compound was added to assay wells, and 2.5 μl of DMSO to assay wells as vehicle control. Kinase solution was prepared in reaction buffer at 2× final assay concentration. Kinase solution (5 μl) was added to each well of the assay plate. The substrate and ATP solution was prepared in kinase reaction buffer at 4× final assay concentration. The kinase reaction was started by adding 2.5 μl of substrate+ATP mix solution to each well of the assay plate. The plate is mixed on a plate shaker; then covered and allowed to react for 2 hours in the dark at 25° C. without shaking. The reaction was stopped by adding 5 μl of stop solution to each test well followed by mixing and incubation at RT for 10 minutes in the dark. 5 μl of detection mix (detection antibody diluted in detection buffer) was added; the contents of the plate were mixed and then incubated in the dark for 1 hour at RT.

| Structure (SMILES) | pIC50 |
| --- | --- |
| Cc1ccccc1N(C)c1nc2cc(C(=O)O)ccc2nc1-c1ccc(F)cc1 [Example 109, 2-(4-Fluorophenyl)-3-(methyl(o-tolyl)amino)quinoxaline-6-carboxylic acid] | > 5.00 |
| CC(C)(C)Nc1nc2cc(C(=O)O)ccc2nc1-c1ccc(F)cc1 [Example 110, 3-(tert-Butylamino)-2-(4-fluorophenyl)quinoxaline-6-carboxylic acid] | > 5.00 |
| C[C@H]1CNCCN1c1nc2cc(C(=O)O)ccc2nc1-c1ccc(F)cc1 [Example 114, 2-(4-Fluorophenyl)-3-[(2S)-2-methylpiperazin-1-yl]quinoxaline-6-carboxylic acid] | > 5.00 |
| Cc1cc(F)ccc1-c1nc2ccc(C(=O)O)cc2nc1N1CCC[C@@H]1C [Example 117, (S)-2-(4-Fluoro-2-methylphenyl)-3-(2-methylpyrrolidin-1-yl)quinoxaline-6-carboxylic acid] | > 5.00 |
| CN(CC(F)(F)F)c1nc2cc(C(=O)O)ccc2nc1-c1ccc(F)cc1 [Example 124, 2-(4-Fluorophenyl)-3-[methyl(2,2,2-trifluoroethyl)amino]quinoxaline-6-carboxylic acid] | > 5.00 |
| CN(c1nc2cc(C(=O)O)ccc2nc1-c1ccc(F)cc1)[C@H]1CC[C@H](O)CC1 [Example 125, 2-(4-Fluorophenyl)-3-(((1r,4r)-4-hydroxycyclohexyl)(methyl)amino)quinoxaline-6-carboxylic acid] | > 5.00 |
| CC(=O)N[C@H]1CC[C@H](N(C)c2nc3cc(C(=O)O)ccc3nc2-c2ccc(F)cc2)CC1 [Example 127, 3-(((1r,4r)-4-Acetamidocyclohexyl)(methyl)amino)-2-(4-fluorophenyl)quinoxaline-6-carboxylic acid] | > 5.00 |
| CC(=O)N1CCN(c2nc3cc(C(=O)O)ccc3nc2-c2ccc(F)cc2)CC1 [Example 128, 3-(4-Acetylpiperazin-1-yl)-2-(4-fluorophenyl)quinoxaline-6-carboxylic acid] | > 5.00 |
| O=C(O)c1ccc2nc(-c3ccc(F)cc3)c(N3CCN(C(=O)c4ccccc4)CC3)nc2c1 [Example 129, 3-(4-Benzoylpiperazin-1-yl)-2-(4-fluorophenyl)quinoxaline-6-carboxylic acid] | > 5.00 |
| CS(=O)(=O)N1CCN(c2nc3cc(C(=O)O)ccc3nc2-c2ccc(F)cc2)CC1 [Example 130, 2-(4-Fluorophenyl)-3-(4-(methylsulfonyl)piperazin-1-yl)quinoxaline-6-carboxylic acid] | > 5.00 |
| O=C(O)c1ccc2nc(-c3ccc(F)cc3)c(N3CCC(c4ccccn4)CC3)nc2c1 [Example 131, 2-(4-Fluorophenyl)-3-[4-(pyridin-2-yl)piperidin-1-yl]quinoxaline-6-carboxylic acid] | > 5.00 |
| C[C@H]1CCCN1c1nc2cc(C(=O)O)c(O)cc2nc1-c1ccc(F)cc1 [Example 132, (S)-2-(4-Fluorophenyl)-7-hydroxy-3-(2-methylpyrrolidin-1-yl)quinoxaline-6-carboxylic acid] | > 5.00 |
| CN(Cc1ccccc1)c1nc2cc(C(=O)O)ccc2nc1-c1ccc(F)cc1 [Example 133, 3-[Benzyl(methyl)amino]-2-(4-fluorophenyl)quinoxaline-6-carboxylic acid] | > 5.00 |
| CN(Cc1ccccn1)c1nc2cc(C(=O)O)ccc2nc1-c1ccc(F)cc1 [Example 134, 2-(4-Fluorophenyl)-3-[methyl(pyridin-2-ylmethyl)amino]quinoxaline-6-carboxylic acid] | > 5.00 |
| CCN1CCC(N(C)c2nc3cc(C(=O)O)ccc3nc2-c2ccc(F)cc2)CC1 [Example 137, 3-[(1-Ethylpiperidin-4-yl)(methyl)amino]-2-(4-fluorophenyl)quinoxaline-6-carboxylic acid] | > 5.00 |
| CCN1CCN(c2nc3cc(C(=O)O)ccc3nc2-c2ccc(F)cc2)[C@@H](C)C1 [Example 138, (S)-3-(4-Ethyl-2-methylpiperazin-1-yl)-2-(4-fluorophenyl)quinoxaline-6-carboxylic acid] | > 5.00 |
| CCCN(CC)c1nc2cc(C(=O)O)ccc2nc1-c1ccc(F)cc1 [Example 139, 3-[Ethyl(propyl)amino]-2-(4-fluorophenyl)quinoxaline-6-carboxylic acid] | > 5.00 |
| CCC1CCCCN1c1nc2cc(C(=O)O)ccc2nc1-c1ccc(F)cc1 (stereo not shown) [Example 142, 3-(2-Ethylpiperidin-1-yl)-2-(4-fluorophenyl)quinoxaline-6-carboxylic acid] | > 5.00 |
| O=C(O)c1ccc2nc(-c3ccc(F)cc3)c(N3CCCC3)nc2c1 [Example 144, 2-(4-Fluorophenyl)-3-(pyrrolidin-1-yl)quinoxaline-6-carboxylic acid] | > 5.00 |
| O=C(O)c1ccc2nc(-c3ccc(F)cc3)c(N3CCC3)nc2c1 [Example 145, 3-(Azetidin-1-yl)-2-(4-fluorophenyl)quinoxaline-6-carboxylic acid] | > 5.00 |

Results, then the molecule that gave them:

| pIC50 | Structure (SMILES) |
| --- | --- |
| > 5.00 | CC(C)N(C)c1nc2cc(C(=O)O)ccc2nc1-c1cc2cc(Cl)ccc2o1 [Example 19, 2-(5-Chlorobenzofuran-2-yl)-3-(isopropyl(methyl)amino)quinoxaline-6-carboxylic acid] |
| > 5.00 | CC(C)N(C)c1nc2cc(C(=O)O)ccc2nc1-c1ccc2c(c1)CCCO2 [Example 21, 2-(Chroman-6-yl)-3-(isopropyl(methyl)amino)quinoxaline-6-carboxylic acid] |
| > 5.00 | CC(C)N(C)c1nc2cc(C(=O)O)ccc2nc1-c1cc2ccccc2s1 [Example 23, 2-(Benzo[b]thiophen-2-yl)-3-(isopropyl(methyl)amino)quinoxaline-6-carboxylic acid] |
| > 5.00 | Cc1cc(F)ccc1-c1nc2ccc(C(=O)O)cc2nc1N(C)C(C)C [Example 118, 2-(4-Fluoro-2-methylphenyl)-3-(isopropyl(methyl)amino)quinoxaline-6-carboxylic acid] |
| > 5.00 | CC(C)N(C)c1nc2cc(C(=O)O)ccc2nc1-c1ccc(C(N)=O)cc1 [Example 119, 2-(4-Carbamoylphenyl)-3-(isopropyl(methyl)amino)quinoxaline-6-carboxylic acid] |
| < 5.00 | COc1cc2nc(-c3ccc(F)cc3)c(N(C)C(C)C)nc2cc1C(=O)O [Example 122, 2-(4-Fluorophenyl)-7-methoxy-3-[methyl(propan-2-yl)amino]quinoxaline-6-carboxylic acid] |
| > 5.00 | CC(C)N(C)c1nc2cc(C(=O)O)c(F)cc2nc1-c1ccc(F)cc1 [Example 123, 7-Fluoro-2-(4-fluorophenyl)-3-[methyl(propan-2-yl)amino]quinoxaline-6-carboxylic acid] |
| > 5.00 | CN[C@H]1CC[C@H](N(C)c2nc3cc(C(=O)O)ccc3nc2-c2ccc(F)cc2)CC1 [Example 126, 2-(4-Fluorophenyl)-3-(methyl((1r,4r)-4-(methylamino)cyclohexyl)amino)quinoxaline-6-carboxylic acid] |
| > 5.00 | CC(C)N(C)c1nc2cc(C(=O)O)ccc2nc1-c1ccc(C(F)(F)F)cc1 [Example 136, 3-(Isopropyl(methyl)amino)-2-(4-(trifluoromethyl)phenyl)quinoxaline-6-carboxylic acid] |
| > 5.00 | CC(C)CN(C)c1nc2cc(C(=O)O)ccc2nc1-c1ccc(F)cc1 [Example 141, 2-(4-Fluorophenyl)-3-(isobutyl(methyl)amino)quinoxaline-6-carboxylic acid] |
| > 5.00 | C[C@@H](c1ccccc1)N(C)c1nc2cc(C(=O)O)ccc2nc1-c1ccc(F)cc1 [Example 143, (S)-2-(4-Fluorophenyl)-3-(methyl(1-phenylethyl)amino)quinoxaline-6-carboxylic acid] |
